tested on: spindle assembly checkpoint (phosphorylated histone H3 on serine 10) in HeLa cells; assay: SAC-Formation - Paclitaxel-Induced Assay; type: cell-based; details: Homo sapiens, paclitaxel 0.05 μM, 24 h incubation
Source text: The spindle assembly checkpoint assures the proper segregation of chromosomes during mitosis. Upon entry into mitosis, chromosomes begin to condensate which is accompanied by the phosphorylation of histone H3 on serine 10. Dephosphorylation of histone H3 on serine 10 begins in anaphase and ends at early telophase. Accordingly, phosphorylation of histone H3 on serine 10 can be utilized as a marker of cells in mitosis. Nocodazole is a microtubule destabilizing substance. Paclitaxel is a microtubule stabilizing compound. Thus, nocodazole as well as paclitaxel interfere with microtubule dynamics and mobilize the spindle assembly checkpoint. […] The mitotic breakthrough can be detected by the decrease of cells with phosphorylation of histone H3 on serine 10. This decline is used as a marker to determine the capability of compounds of the present invention to induce a mitotic breakthrough. The typical morphological alteration of nuclei with a prematurely completed mitosis after SAC-inhibition can be monitored via image analysis routines supporting those findings.
The nocodazole and paclitaxel variations were used to focus on compounds that are capable of inhibiting a SAC induced by both microtubule destabilization as well as microtubule stabilization. […]
Cultivated cells of the human cervical tumor cell line HeLa (ATCC CCL-2) were plated at a density of 1000 cells/well in a 1536-well microtiter plate in 2 μl PAA Ham's F12 Medium supplemented with 1% (v/v) glutamine, 1% (v/v) penicillin, 1% (v/v) streptomycin and 10% (v/v) fetal calf serum. […] Images were acquired with a PERKIN ELMER OPERA™ High-Content Analysis reader. Images were analyzed with image analysis software MetaXpress™ from Molecular devices utilizing the Mitotic Index application module. In this assay both labels HOECHST 33342 and phosphorylated Histone H3 on serine 10 were measured. […] The raw assay data were further analyzed by four-parametric hill equation using Genedata's Assay Analyzer and Condoseo software.

| IC50 | Compound |
| --- | --- |
| 630 nM | Cc1noc(Nc2cnc(C(=O)NC3CCN(CC(F)F)CC3)cn2)c1C(=O)Nc1ccc(F)c(F)c1 [Example 1b, N-[1-(2,2-Difluoroethyl)piperidin-4-yl]-5-({4-[(3,4-difluorophenyl)carbamoyl]-3-methyl-1,2-oxazol-5-yl}amino)pyrazine-2-carboxamide] |
| 180 nM | Cc1noc(Nc2cnc(C(F)(F)F)cn2)c1C(=O)Nc1ccc(F)c(F)c1 [Example 1c, N-(3,4-Difluorophenyl)-3-methyl-5-{[5-(trifluoromethyl)pyrazin-2-yl]amino}-1,2-oxazole-4-carboxamide] |
| 760 nM | Cc1noc(Nc2cnc(C(F)(F)F)cn2)c1C(=O)Nc1ccc(OC2CCN(CCC(F)(F)F)CC2)nc1 [Example 1a, 3-Methyl-5-{[5-(trifluoromethyl)pyrazin-2-yl]amino}-N-(6-{[1-(3,3,3-trifluoropropyl)-piperidin-4-yl]oxy}pyridin-3-yl)-1,2-oxazole-4-carboxamide] |

From patent publication US20170217946A1, “AMINO-SUBSTITUTED ISOXAZOLES” (Bayer Pharma Aktiengesellschaft, priority 2014, published 2017)
